What all share (type): cell-based
The subject of assay [1] is HCV 2a Rluc cells (NS5A chimeric genotype 2a JFH-1 replicon with genotype 2a J6 strain NS5A gene, M31 present). The experiment in a line: HCV replicon reporter assay, genotype 2a J6 (M31 present). As to conditions: Hepatitis C virus, read-out: 2a J6. A digest of the protocol: (§1)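 Renilla luciferase HCV replicon cells: dicistronic 1b Con1, 1a H77 or 2a JFH-1 replicons, or a JFH-1 chimera carrying J6 NS5A (M31 present). Compound in DMSO serial dilutions, 72 h incubation, then lysis and luciferase read. EC50 by non-linear regression.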
In general terms: In antiviral work, replicon cells carry a viral genome segment that copies itself.

Assay [2] has as its system HCV 3a RLuc cells (NS5A chimeric genotype 1b Con1 replicon with consensus genotype 3a NS5A gene). The experiment in a line: microbe, parasite or virus in culture. As to conditions: Hepatitis C virus, read-out: 3a, genotype 3a replicon. A digest of the protocol:
(§2)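 Replicon cells stably carrying the listed RLuc-encoding dicistronic replicons were seeded and treated with DMSO serial dilutions of compound (10 mM stocks) diluted into culture medium. After 72 h, cells were lysed and Renilla luciferase activity measured. EC50 was derived by non-linear regression.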

The subject of assay [3] is HCV 1a RLuc cells (dicistronic genotype 1a H77 replicon, RLuc reporter). As to the kind of experiment: microbe, parasite or virus in culture. As to conditions: Hepatitis C virus, genotype 1a replicon; read-out: 1a. A digest of the protocol:
as §1

For assay [4], the system named is HCV 2b Rluc cells (NS5A chimeric genotype 2a JFH-1 replicon with genotype 2b MD2b-1 NS5A gene, M31 present). As to the kind of experiment: microbe, parasite or virus in culture. As to conditions: Hepatitis C virus, read-out: 2b. Summed up: as §2
Assay [5] deals with HCV 4a Rluc cells (NS5A chimeric genotype 1b Con1 replicon with genotype 4a NS5A gene). As to the kind of experiment: microbe, parasite or virus in culture. Particulars: Hepatitis C virus, read-out: 4a. Summed up: as §2
The subject of assay [6] is HCV 1b RLuc cells (dicistronic genotype 1b Con1 replicon, RLuc reporter). The experiment in a line: microbe, parasite or virus in culture. As to conditions: Hepatitis C virus, read-out: 1b (nM). A digest of the protocol: as §1
The subject of assay [7] is HCV 2a JFH-1 Rluc cells (dicistronic genotype 2a JFH-1 replicon, RLuc reporter). As to the kind of experiment: microbe, parasite or virus in culture. As to conditions: Hepatitis C virus, genotype 2a JFH-1 replicon; read-out: 2a JFH. Summed up: as §1

Consider `COC(=O)N[C@H](C(=O)N1CCC[C@H]1c1ncc(-c2ccc3c(c2)COc2c-3ccc3c2ccc2nc([C@@H]4CCCN4C(=O)[C@H](NC(=O)OC)c4ccccc4)[nH]c23)[nH]1)C(C)C` [Example 413], for which the EC50 in assay [1] was 1 to 44 nM; in assay [2], 0.001 to 0.99 nM; in assay [3], 0.001 to 0.999 nM; in assay [4], 1 to 44 nM; in assay [5], 0.001 to 0.99 nM; in assay [6], 0.017 nM. Moreover, the EC50 in assay [7] lay in the range of 0.001 to 0.999 nM.
Regarding `COC[C@H]1C[C@@H](c2nc3ccc4cc(-c5ccc(-c6cnc([C@@H]7CCCN7C(=O)[C@H](NC(=O)OC)c7ccccc7)[nH]6)cc5)ccc4c3[nH]2)N(C(=O)[C@@H](NC(=O)OC)C(C)C)C1` [Example 415], the EC50 in assay [1] was 0.001 to 0.999 nM; in assay [2], 0.001 to 0.99 nM; in assay [3], 0.001 to 0.999 nM; in assay [4], 0.001 to 0.999 nM; in assay [5], 0.001 to 0.99 nM; in assay [6] it was 0.034 nM. Moreover, the EC50 in assay [7] lay within 0.001 to 0.999 nM.
As to `COC(=O)N[C@H](C(=O)N1CCC[C@H]1c1nc2ccc3cc(-c4ccc5c(ccc6nc([C@@H]7C[C@H](C#N)CN7C(=O)[C@@H](NC(=O)OC)C(C)C)[nH]c65)c4)ccc3c2[nH]1)C(C)C` [Example 416], the EC50 in assay [1] is 0.001 to 0.999 nM; in assay [2], 0.001 to 0.99 nM; in assay [3] it was 0.001 to 0.999 nM; in assay [4] it was 1 to 44 nM; in assay [5], 0.001 to 0.99 nM; in assay [6], 0.043 nM. Also, the EC50 in assay [7] is 0.001 to 0.999 nM.
Consider `COC[C@H]1C[C@@H](c2nc3ccc4cc(-c5ccc(-c6cnc([C@@H]7CCCN7C(=O)[C@@H](NC(=O)OC)C(C)C)[nH]6)cc5)ccc4c3[nH]2)N(C(=O)[C@@H](NC(=O)OC)C(C)C)C1` [Example 417], for which the EC50 is 1 to 44 nM in assay [1]; 0.001 to 0.99 nM in assay [2]; 0.001 to 0.999 nM in assay [3]; 1 to 44 nM in assay [4]; 0.001 to 0.99 nM in assay [5]; 0.024 nM in assay [6]. In addition, the EC50 in assay [7] fell in the range of 0.001 to 0.999 nM.
For `CC(=O)N[C@@H](C(=O)N1CCC[C@H]1c1ncc(-c2cc3c4c(c2)OCc2cc(-c5cnc([C@@H]6CCCN6C(=O)[C@H](NC(C)=O)c6ccccc6)[nH]5)cc(c2-4)OC3)[nH]1)c1ccccc1` [Example 419], the EC50 in assay [1] is 0.001 to 0.999 nM; in assay [2], 0.001 to 0.99 nM; in assay [3], 1 to 44 nM; in assay [4], 0.001 to 0.999 nM; in assay [5] it was 0.001 to 0.99 nM; in assay [6], 0.786 nM. Further, in assay [7], the EC50 is 0.001 to 0.999 nM.
`COC(=O)NC(C(=O)N1CCC[C@H]1c1ncc(-c2cc3c4c(c2)OCc2cc(-c5[nH]c([C@@H]6CCCN6C(=O)C(NC(=O)OC)c6cccnc6)nc5Cl)cc(c2-4)OC3)[nH]1)c1cccnc1` (some centres unmarked) [Example 420]: the EC50 was 1 to 44 nM in assay [1]; 0.001 to 0.99 nM in assay [2]; 1 to 44 nM in assay [3]; 1 to 44 nM in assay [4]; 1 to 4.99 nM in assay [5]; 4.66 nM in assay [6]. In assay [7], the EC50 was 0.001 to 0.999 nM.
With `COC(=O)N[C@@H](C(=O)N1CCC[C@H]1c1nc(Cl)c(-c2cc3c4c(c2)OCc2cc(-c5[nH]c([C@@H]6CCCN6C(=O)[C@H](NC(=O)OC)c6ccccc6)nc5Cl)cc(c2-4)OC3)[nH]1)c1ccccc1` [Example 421], the EC50 in assay [1] was 0.001 to 0.999 nM; in assay [2] it was 0.001 to 0.99 nM; in assay [3] it was 0.001 to 0.999 nM; in assay [4], 0.001 to 0.999 nM; in assay [5], 0.001 to 0.99 nM; in assay [6], 0.041 nM. Further, in assay [7], the EC50 fell in the range of 0.001 to 0.999 nM.
As for `COC(=O)N[C@H](C(=O)N1CCC[C@H]1c1nc2ccc3cc(-c4ccc5c(ccc6nc([C@@H]7C[C@@H]8CCC[C@@H]8N7C(=O)[C@@H](NC(=O)OC)C(C)C)[nH]c65)c4)ccc3c2[nH]1)C(C)C` [Example 428], the EC50 in assay [1] is 0.001 to 0.999 nM; in assay [2], 0.001 to 0.99 nM; in assay [3], 0.001 to 0.999 nM; in assay [4] it was 1 to 44 nM; in assay [5] it was 0.001 to 0.99 nM; in assay [6], 0.011 nM. Besides, in assay [7], the EC50 fell in the range of 0.001 to 0.999 nM.

These data come from patent US10344019B2 (priority 2010, dated 2019).
